# Source: patent US20120046317A1, “NOVEL HETEROCYCLIC COMPOUNDS” (priority 2009, published 2012)
# Key:
# [1] = tested on: AGE-LDL formation (Low density lipoprotein incubated with CuCl2); experiment: In vitro inhibition of AGE-LDL formation: LDL incubated with CuCl2, MDA-lysine adduct fluorescence; assay type: biochemical; details: LDL with CuCl2 at 37° C.
# Description: In vitro Inhibition of AGE-LDL Formation:
# Low density lipoprotein (LDL) was incubated with CuCl2 at 37° C. in phosphate buffered saline in the presence and absence of the following compounds. […] Results were expressed as % MDA-lysine adducts accumulation, considering the extent of the same formed upon incubation with CuCl2 alone as 100%.
# [2] = tested on: AGE-BSA Formation (Bovine Serum Albumin incubated with ribose); experiment: In vitro prevention of advanced glycation endproducts (AGEs) accumulation: BSA incubated with ribose, fluorescence; details: one week
# Description: A reduction in fluorescence intensity in the presence of the test compound is an indication of its ability to prevent accumulation of advanced glycation endproducts.
# Bovine Serum Albumin was incubated with ribose alone as well as with ribose and different concentrations of the following compounds under aseptic conditions for one week. At the end of the incubation period fluorescence intensity of the samples was measured at excitation and emission wavelengths of 355 nm and 460 nm respectively.
Compound,% Inhibition of AGE-LDL-formation ([1]; Conc. 100 uM),% Inhibition of AGE-LDL-formation ([1]; Conc. 250 uM),% Inhibition of AGE-BSA Formation ([2]; Conc. 1 mM),also measured
"O=C(CN1C=CCC(C(=O)NCCOC(=O)c2ccccc2)=C1)Nc1ccccc1 [Compound no. 107, 2-[({1-[2-oxo-2-(phenylamino)ethyl]-1,4-dihydropyridin-3-yl}carbonyl)amino]ethyl benzoate]",+ (+ indicate 0-10%),–,–,–
"COc1ccc(C(=O)CN2CCCC(C(=O)NNS(C)(=O)=O)C2)cc1 (stereo not drawn) [compound 163, 1-[2-(4-methoxyphenyl)-2-oxoethyl]-N′-(methylsulfonyl)piperidine-3-carbohydrazide]",+ (+ indicate 0-10%),–,–,% Inhibition of AGE-BSA Formation ([2]; Conc. 250 uM): + (+ indicate 0-10%)
"CS(=O)(=O)NNC(=O)C1=CN(CC(=O)c2ccc(Cl)cc2Cl)C=CC1 [compound 168, 1-[2-(2,4-dichlorophenyl)-2-oxoethyl]-N′-(methylsulfonyl)-1,4-dihydropyridine-3-carbohydrazide]",+ (+ indicate 0-10%),–,–,% Inhibition of AGE-BSA Formation ([2]; Conc. 100 uM): + (+ indicate 0-10%)
"COc1ccc(C(=O)CN2CCC=C(C(=O)NNS(C)(=O)=O)C2)cc1 [compound 172, 1-[2-(4-methoxyphenyl)-2-oxoethyl]-N′-(methylsulfonyl)-1,2,5,6-tetrahydropyridine-3-carbohydrazide]",–,–,–,% Inhibition of AGE-LDL-formation ([1]; Conc. 50 uM): + (+ indicate 0-10%); % Inhibition of AGE-BSA Formation ([2]; Conc. 50 uM): + (+ indicate 0-10%)
"Cc1ccc(C(=O)CN2C=CCC(C(=O)NNS(C)(=O)=O)=C2)s1 [Compound no. 13, N′-(methylsulfonyl)-1-[2-(5-methylthiophen-2-yl)-2-oxoethyl]-1,4-dihydropyridine-3-carbohydrazide]",–,++++ (++++ indicate >30%),+++ (+++ indicate 21-30%),–
"CS(=O)(=O)NNC(=O)C1=CN(CC(=O)c2cccs2)CCC1 [compound 183, N′-(methylsulfonyl)-1-[2-oxo-2-(thiophen-2-yl)ethyl]-1,4,5,6-tetrahydropyridine-3-carbohydrazide]",–,++ (++ indicate 11-20%),+++ (+++ indicate 21-30%),–
"Cc1ccc(S(=O)(=O)NNC(=O)C2=CN(CC(=O)Nc3ccccc3)C=CC2)cc1 [compound 145, 2-[3-({2-[(4-methylphenyl)sulfonyl]hydrazinyl}carbonyl)pyridin-1(4H)-yl]-N-phenylacetamide]",–,+ (+ indicate 0-10%),–,% Inhibition of AGE-BSA Formation ([2]; Conc. 250 uM): + (+ indicate 0-10%)
"CS(=O)(=O)NNC(=O)C1=CN(CC(=O)c2cccs2)CCC1 [compound 187, N′-(methylsulfonyl)-1-[2-oxo-2-(thiophen-2-yl)ethyl]-1,4,5,6-tetrahydropyridine-3-carbohydrazide]",–,–,+ (+ indicate 0-10%),–
"CS(=O)(=O)NNC(=O)C1=CN(CC(=O)c2ccc(Br)cc2)C=CC1 [compound 143, 1-[2-(4-bromophenyl)-2-oxoethyl]-N′-(methylsulfonyl)-1,4-dihydropyridine-3-carbohydrazide]",++++ (++++ indicate >30%),–,–,% Inhibition of AGE-BSA Formation ([2]; Conc. 100 uM): + (+ indicate 0-10%)
"Cc1ccc(C(=O)CN2CCCC(C(=O)NNS(C)(=O)=O)C2)s1 (stereo not drawn) [compound 164, N′-(methylsulfonyl)-1-[2-(5-methylthiophen-2-yl)-2-oxoethyl]piperidine-3-carbohydrazide]",–,+ (+ indicate 0-10%),+ (+ indicate 0-10%),–
"COc1ccc(C(=O)CN2CCC=C(C(=O)NNS(=O)(=O)c3ccc(C)cc3)C2)cc1 [compound 173, 1-[2-(4-methoxyphenyl)-2-oxoethyl]-N′-[(4-methylphenyl)sulfonyl]-1,2,5,6-tetrahydropyridine-3-carbohydrazide]",+ (+ indicate 0-10%),–,–,% Inhibition of AGE-BSA Formation ([2]; Conc. 100 uM): + (+ indicate 0-10%)
"O=C(NCCO)C1=CN(CC(=O)c2ccc(Br)cc2)C=CC1 [compound 148, 1-[2-(4-bromophenyl)-2-oxoethyl]-N-(2-hydroxyethyl)-1,4-dihydropyridine-3-carboxamide]",–,–,+ (+ indicate 0-10%),–
